Experimental data as given in patent publication US9273043B2, “TRPV1 antagonists including dihydroxy substituent and uses thereof” (Purdue Pharma L.P., priority 2011, dated 2016).

Test system: neuropathic mechanical hyperalgesia after partial sciatic nerve ligation
Experiment: Seltzer model (partial sciatic nerve ligation) of neuropathic pain, paw withdrawal threshold
Format: in vivo, rat
Conditions: for % Reversal [mean ± SEM]: rat; for % reversal of neuropathic hyperalgesia / % reversal of neuropathic hyperalgesia, maximum analgesic efficacy: rat Seltzer model
Method: In the Seltzer model, the partial sciatic nerve ligation model of neuropathic pain was used to produce neuropathic hyperalgesia in rats (Seltzer et al., “A Novel Behavioral Model of Neuropathic Pain Disorders Produced in Rats by Partial Sciatic Nerve Injury,” Pain 43:205-218 (1990)). Partial ligation of the left sciatic nerve was performed under isoflurane/O2 inhalation anaesthesia. Following induction of anesthesia, the left thigh of the male, 6-7 week old Jcl:SD rat was shaved. The sciatic nerve was exposed at high thigh level through a small incision and was carefully cleared of surrounding connective tissues at a site near the trocanther just distal to the point at which the posterior biceps semitendinosus nerve branches off of the common sciatic nerve. A 7-0 silk suture was inserted into the nerve with a ⅜ curved, reversed-cutting mini-needle and tightly ligated so that the dorsal ⅓ to ½ of the nerve thickness was held within the ligature. The wound was closed with a single muscle suture (4-0 nylon (Vicryl)) and vetbond tissue glue. The wound area was then dusted with antibiotic powder. Sham treatment involved an identical surgical procedure except that the sciatic nerve was not manipulated or ligated.
Following surgery, animals were weighed and placed on a warm pad until they recovered from anesthesia. Animals were then returned to their home cages until behavioral testing began. The animal was assessed for response to noxious mechanical stimuli by determining PWT for the rear paw of the animal, as described below, prior to surgery (baseline), then immediately prior to and 1, 3, 5, 7, and 24 hours after oral drug-in-vehicle administration (for day 1). Thus, the 24 hour time point was the start of the next day when drug-in-vehicle was again orally administered (24 hours after the prior administration). On days 2 and 3, PWT response was determined 1, 3, and 24 hours thereafter. Percentage reversal of neuropathic hyperalgesia at each of the specified times after administration was defined as: […]
Additionally, 10 mg/kg of pregabalin (Kemprotec, Ltd., Middlesbrough, UK), an anticonvulsant accepted for relief of particular neuropathic pain, in vehicle and the vehicle alone (0.5% weight/volume methylcellulose (400cP, Wako Pure Chemical Industries, Ltd.)/aqueous solution) were orally administered as controls. […] Ten rats that underwent partial ligation of the left sciatic nerve were used for each treatment group. Dunnett's test was conducted for the % reversal; values with p<0.05 were considered to be statistically significant.
Additionally, as a control the rats underwent sham surgery in which an identical surgical procedure was followed with regard to the right thigh but the sciatic nerve was neither manipulated nor ligated.
Response to Mechanical Stimuli as an Assessment of Mechanical Hyperalgesia: The paw pressure assay was used to assess mechanical hyperalgesia. […] Biochem. and Behavior 31:451-455 (1988). The maximum weight that could be applied to the hind paw was set at 250 g and the end point was taken as complete withdrawal of the paw. PWT was determined once for each rat at each time point and either only the affected (ipsilateral) paw was tested, or both the ipsilateral and contralateral (non-injured) paw were tested.

Compound: CC1CN(c2ncc(C(O)CO)cc2F)CCN1C(=O)Nc1nc2cc(F)ccc2s1.O=C(O)C=CC(=O)O (centres unmarked)
- % Reversal [mean ± SEM] (1 mg/kg oral once daily, 1 hours (day 2) after administration): 12.04 ± 4.92 %
- % Reversal [mean ± SEM] (1 mg/kg oral once daily, 1 hours (day 3) after administration): 6.44 ± 6.50%
- % Reversal [mean ± SEM] (1 mg/kg oral once daily, 3 hours (day 2) after administration): 12.84 ± 4.12 %
- % Reversal [mean ± SEM] (1 mg/kg oral once daily, 3 hours (day 3) after administration): 9.58 ± 5.23%
- % Reversal [mean ± SEM] (1 mg/kg oral once daily, 24 hours (0 hrs day 2) after administration): 0.71 ± 2.46%
- % Reversal [mean ± SEM] (1 mg/kg oral once daily, 24 hours (0 hrs day 3) after administration): 4.89 ± 2.68%
- % Reversal [mean ± SEM] (1 mg/kg oral once daily, 24 hours (0 hrs day 4) after administration): 0.51 ± 3.15%
- % Reversal [mean ± SEM] (1 mg/kg oral, 1 hours (day 1) after administration): 14.60 ± 4.26%
- % Reversal [mean ± SEM] (1 mg/kg oral, 3 hours (day 1) after administration): 17.04 ± 4.91 %
- % Reversal [mean ± SEM] (1 mg/kg oral, 5 hours (day 1) after administration): 11.39 ± 3.13 %
- % Reversal [mean ± SEM] (1 mg/kg oral, 7 hours (day 1) after administration): 3.04 ± 4.49%
- % Reversal [mean ± SEM] (3 mg/kg oral once daily, 1 hours (day 2) after administration): 12.57 ± 2.38 %
- % Reversal [mean ± SEM] (3 mg/kg oral once daily, 1 hours (day 3) after administration): 11.80 ± 3.29%
- % Reversal [mean ± SEM] (3 mg/kg oral once daily, 3 hours (day 2) after administration): 17.14 ± 5.38 %
- % Reversal [mean ± SEM] (3 mg/kg oral once daily, 3 hours (day 3) after administration): 17.34 ± 3.91 %
- % Reversal [mean ± SEM] (3 mg/kg oral once daily, 24 hours (0 hrs day 2) after administration): −5.34 ± 4.20%
- % Reversal [mean ± SEM] (3 mg/kg oral once daily, 24 hours (0 hrs day 3) after administration): −3.85 ± 4.61%
- % Reversal [mean ± SEM] (3 mg/kg oral once daily, 24 hours (0 hrs day 4) after administration): −1.95 ± 2.97%
- % Reversal [mean ± SEM] (3 mg/kg oral, 1 hours (day 1) after administration): 15.69 ± 4.62%
- % Reversal [mean ± SEM] (3 mg/kg oral, 3 hours (day 1) after administration): 18.39 ± 1.67 %
- % Reversal [mean ± SEM] (3 mg/kg oral, 5 hours (day 1) after administration): 12.22 ± 1.89 %
- % Reversal [mean ± SEM] (3 mg/kg oral, 7 hours (day 1) after administration): 7.65 ± 2.79%
- % Reversal [mean ± SEM] (10 mg/kg oral once daily, 1 hours (day 2) after administration): 27.41 ± 4.56 %
- % Reversal [mean ± SEM] (10 mg/kg oral once daily, 1 hours (day 3) after administration): 23.36 ± 4.69 %
- % Reversal [mean ± SEM] (10 mg/kg oral once daily, 3 hours (day 2) after administration): 29.12 ± 5.44 %
- % Reversal [mean ± SEM] (10 mg/kg oral once daily, 3 hours (day 3) after administration): 28.91 ± 5.72 %
- % Reversal [mean ± SEM] (10 mg/kg oral once daily, 24 hours (0 hrs day 2) after administration): 3.38 ± 3.97%
- % Reversal [mean ± SEM] (10 mg/kg oral once daily, 24 hours (0 hrs day 3) after administration): 2.87 ± 4.62%
- % Reversal [mean ± SEM] (10 mg/kg oral once daily, 24 hours (0 hrs day 4) after administration): 11.09 ± 3.45%
- % Reversal [mean ± SEM] (10 mg/kg oral, 1 hours (day 1) after administration): 32.51 ± 5.00 %
- % Reversal [mean ± SEM] (10 mg/kg oral, 3 hours (day 1) after administration): 34.17 ± 5.60 %
- % Reversal [mean ± SEM] (10 mg/kg oral, 5 hours (day 1) after administration): 19.59 ± 3.04 %
- % Reversal [mean ± SEM] (10 mg/kg oral, 7 hours (day 1) after administration): 17.06 ± 2.95 %
- % reversal of neuropathic hyperalgesia (oral 1 mg/kg once daily, day 2, 3 hour time point): 12.84%
- % reversal of neuropathic hyperalgesia, maximum analgesic efficacy (oral 1 mg/kg, single (day 1) administration): 17.04%
- % reversal of neuropathic hyperalgesia (oral 3 mg/kg once daily, day 2, 3 hour time point): 17.14%
- % reversal of neuropathic hyperalgesia (oral 3 mg/kg once daily, day 3, 3 hour time point): 17.34%
- % reversal of neuropathic hyperalgesia, maximum analgesic efficacy (oral 3 mg/kg, 3 h after day 1 administration): 18.39%
- % reversal of neuropathic hyperalgesia (oral 10 mg/kg once daily, day 2, 3 hour time point): 29.12%
- % reversal of neuropathic hyperalgesia (oral 10 mg/kg once daily, day 3, 3 hour time point): 28.91%
- % reversal of neuropathic hyperalgesia (oral 10 mg/kg, 3 h after day 1 administration (maximum)): 34.17%
